Source: patent US20100204109A1, “USE OF C-TYPE NATRIURETIC PEPTIDE, ALONE OR IN COMBINATION WITH NEUROPEPTIDE AF, AS A THERAPEUTIC AGENT” (priority 2007, published 2010)
Ends that are not written are not given here.

Legend:
HCMV strain AD169 = test: HCMV plaque formation assay in MRC-5 cells; settings: for inhibition of HCMV plaque formation as compared to the virus control experiment: 10 micrograms per ml, MRC-5 cells, 7-10 days
[1] = system: hepatitis B virus (HBV) ayw strain; test: HBV experimental assay system, HepG2-2.2.15, secreted HBV DNA by TaqMan PCR; format: cell-based; settings: 10 micrograms per ml, six days, HBV DNA in supernatant
[2] = system: spleen cells of Ovalbumin-immunized Balb/c mice; test: Th1/Th2 cytokine profiling assay; format: cell-based, mouse; settings: 10 micrograms per ml; Ovalbumin restimulation; 72 hours supernatant
From the text: Results from Th1/Th2 Cytokine assay:

HUVEC = test: Endothelial tube formation assay; format: cell-based, human; settings: 10 micrograms per ml, 20 hours, average tubule length
From the text: Positive control was vehicle only. […] Raw data were expressed as average tubule lenghs in pixels±standard deviation.

| Molecule | antiviral activity of positive control compounds (HIV-1IIIB) | inhibition of HBV replication as compared to the virus control infection [1] | inhibition of the tube formation of human endothelial cells (HUVEC) | inhibition of HCMV plaque formation as compared to the virus control experiment (HCMV strain AD169) | other results |
| --- | --- | --- | --- | --- | --- |
| Cc1cn([C@H]2C[C@H](N=[N+]=[N-])[C@@H](CO)O2)c(=O)[nH]c1=O [AZT] | expected levels of antiviral activity |  |  |  |  |
| Nc1nc(O)c2ncn(COC(CO)CO)c2n1 [Ganciclovir, reference compound] |  |  |  |  | antiviral activity of positive control compound (HCMV strain AD169; positive control, HCMV AD169 in MRC-5 cells): expected levels of antiviral activity |
| CC(C)(C)NC(=O)[C@@H]1CN(Cc2cccnc2)CCN1C[C@@H](O)C[C@@H](Cc1ccccc1)C(=O)N[C@H]1c2ccccc2C[C@H]1O [indinavir] | expected levels of antiviral activity |  |  |  |  |
| Ala-Gly-Glu-Gly-Leu-Asn-Ser-Gln-Phe-Trp-Ser-Leu-Ala-Ala-Pro-Gln-Arg-Phe-NH2 (AGEGLNSQFWSLAAPQRF-NH2) [Peptide 2] |  | 42.6% | did not inhibit | did not inhibit | IFNγ spleen cells; TH1 response (% of control) [2]: 84.8 % of control; IL-2 spleen cells (% of control) [2]: 0.0 % of control; IL-4 spleen cells; TH2 response (% of control) [2]: 0.0 % of control; IL-5 spleen cells; TH2 response (% of control) [2]: 52.2 % of control; TNF-a spleen cells; TH1 response (% of control) [2]: 92.1 % of control |
| Asp-Leu-Arg-Val-Asp-Thr-Lys-Ser-Arg-Ala-Ala-Trp-Ala-Arg-Leu-Leu-Gln-Glu-His-Pro-Asn-Ala-Arg-Lys-Tyr-Lys-Gly-Ala-Asn-Lys-Lys-Gly-Leu-Ser-Lys-Gly-Cys-Phe-Gly-Leu-Lys-Leu-Asp-Arg-Ile-Gly-Ser-Met-Ser-Gly-Leu-Gly-Cys-OH (DLRVDTKSRAAWARLLQEHPNARKYKGANKKGLSKGCFGLKLDRIGSMSGLGC-OH; cysteine pairing not given here) [Peptide 1] |  | 65.7% | 34% | did not inhibit |  |
